Laboratory results reported in ChEMBL document CHEMBL1201862, “PubChem BioAssay data set” (2004).
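Where inhibition never reached the appropriate level, the endpoint shown equals the highest concentration tested. Otherwise, values were interpolated linearly from a five-concentration, 48-hour dose response in 96-well plates. At the GI50, growth is halved.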 Active and inactive are the calls of the source. No stated cut-off is given here; in the data, active = GI50 up to about 1.1 µM and inactive = higher.

Columns and labels:
Assay in all cases: NCI tumour cell line growth inhibition, 48 h
786-0 = tested on: 786-0
ACHN = tested on: ACHN
CAKI-1 = tested on: CAKI-1
CCRF-CEM = tested on: CCRF-CEM
HCT-116 = tested on: HCT-116
HOP-62 = tested on: HOP-62
HOP-92 = tested on: HOP-92
HT-29 = tested on: HT-29
M14 = tested on: M14
SF-268 = tested on: SF-268
SK-MEL-28 = tested on: SK-MEL-28
SK-MEL-5 = tested on: SK-MEL-5
SK-OV-3 = tested on: SK-OV-3
SR = tested on: SR
HL-60 = tested on: HL-60
Malme-3M = tested on: Malme-3M

SMILES | GI50 (786-0) | GI50 (ACHN) | GI50 (CAKI-1) | GI50 (CCRF-CEM) | GI50 (HCT-116) | GI50 (HOP-62) | GI50 (HOP-92) | GI50 (HT-29) | GI50 (M14) | GI50 (SF-268) | GI50 (SK-MEL-28) | GI50 (SK-MEL-5) | GI50 (SK-OV-3) | GI50 (SR) | GI50 (HL-60) | GI50 (Malme-3M)
c1ccc2cc(C3NCCc4nc[nH]c43)ccc2c1 (stereo not given) | 41.3 µM (inactive) | 23.5 µM (inactive) | 60.3 µM (inactive) | 35.6 µM (inactive) | 67.3 µM (inactive) | > 100 µM (inactive) | 49.3 µM (inactive) | 41.7 µM (inactive) | 39.9 µM (inactive) | > 100 µM (inactive) | > 100 µM (inactive) | 19.1 µM (inactive) | > 100 µM (inactive) | 54.2 µM (inactive) |  | 
COc1ccc(N2C(=O)C3CC(c4ccc(C)cc4)c4c([nH]c5ccccc45)C3C2=O)cc1 (stereo not given) | 12.2 µM (inactive) | 21.6 µM (inactive) | > 96.2 µM (inactive) | 11 µM (inactive) | 4.43 µM (inactive) | 18.1 µM (inactive) | 24 µM (inactive) | 16.3 µM (inactive) | 33.8 µM (inactive) | 19.5 µM (inactive) | > 49.9 µM (inactive) | 63.1 µM (inactive) | 29.5 µM (inactive) | 2.02 µM (inactive) | 14.5 µM (inactive) | 15.5 µM (inactive)
NCC(NC(=O)OCc1ccccc1)C(=O)O (stereo not given) | > 50 µM (inactive) | > 50 µM (inactive) | > 50 µM (inactive) | > 50 µM (inactive) | > 50 µM (inactive) | > 50 µM (inactive) | > 50 µM (inactive) | > 50 µM (inactive) | > 50 µM (inactive) | > 50 µM (inactive) | > 50 µM (inactive) | > 50 µM (inactive) | > 50 µM (inactive) |  | > 50 µM (inactive) | > 50 µM (inactive)
COc1nc2c(c(O)c(C)c(=O)n2OC2OC(COC(C)=O)C(OC(C)=O)C(OC(C)=O)C2OC(C)=O)c(=O)n1C (stereo not given) | > 100 µM (inactive) | > 100 µM (inactive) |  | > 100 µM (inactive) | > 100 µM (inactive) | > 100 µM (inactive) |  | > 100 µM (inactive) | > 100 µM (inactive) | > 100 µM (inactive) | > 100 µM (inactive) | > 100 µM (inactive) |  | > 100 µM (inactive) |  | 
Cc1ccccc1N(CCC#N)C1=NN(C(=O)CC(=O)Nc2ccccc2)C(c2ccccc2)C1 (stereo not given) | > 100 µM (inactive) | > 100 µM (inactive) |  | > 100 µM (inactive) | > 100 µM (inactive) | > 100 µM (inactive) | > 100 µM (inactive) | > 100 µM (inactive) | > 100 µM (inactive) | > 100 µM (inactive) | > 100 µM (inactive) | > 100 µM (inactive) | > 100 µM (inactive) | 44.1 µM (inactive) | > 100 µM (inactive) | > 100 µM (inactive)
COc1cc(/C=N/N=C(\N)NO)ccc1O | > 10 µM (inactive) | 44.1 µM (inactive) | 28.6 µM (inactive) | > 100 µM (inactive) | 69.8 µM (inactive) |  | > 100 µM (inactive) | 67.8 µM (inactive) |  | 56 µM (inactive) | 26 µM (inactive) | 53 µM (inactive) | 78.7 µM (inactive) |  |  | 75.9 µM (inactive)
CC(=O)OC1CC2(C)OC(Cc3ccccc32)O1 (stereo not given) | > 100 µM (inactive) | > 100 µM (inactive) |  | > 100 µM (inactive) | > 100 µM (inactive) | > 100 µM (inactive) | 53.6 µM (inactive) | > 100 µM (inactive) | > 100 µM (inactive) | > 100 µM (inactive) | > 100 µM (inactive) |  | > 100 µM (inactive) | > 100 µM (inactive) | > 100 µM (inactive) | > 100 µM (inactive)
Cc1ccc(S(=O)(=O)C(CC(NC=O)S(=O)(=O)c2ccc(C)cc2)NC=O)cc1 (stereo not given) | > 100 µM (inactive) |  | > 100 µM (inactive) | 62.4 µM (inactive) | > 100 µM (inactive) | > 100 µM (inactive) | > 100 µM (inactive) | > 100 µM (inactive) | > 100 µM (inactive) | > 100 µM (inactive) |  | > 100 µM (inactive) | > 100 µM (inactive) | > 100 µM (inactive) | > 100 µM (inactive) | > 100 µM (inactive)
Cc1ccc(-c2cc(=O)c3cc(C)c(C)c(C(=O)O)c3o2)cc1 | > 100 µM (inactive) | > 100 µM (inactive) |  | > 100 µM (inactive) | > 100 µM (inactive) | > 100 µM (inactive) | > 100 µM (inactive) | > 100 µM (inactive) | > 100 µM (inactive) | > 100 µM (inactive) | > 100 µM (inactive) | > 100 µM (inactive) | > 100 µM (inactive) |  |  | > 100 µM (inactive)
Cc1cc(=O)n(-c2ccccc2C)c(C)n1 | > 100 µM (inactive) | > 100 µM (inactive) | > 100 µM (inactive) | > 100 µM (inactive) | > 100 µM (inactive) | > 100 µM (inactive) | > 100 µM (inactive) | > 100 µM (inactive) | > 100 µM (inactive) | > 100 µM (inactive) | > 100 µM (inactive) | > 100 µM (inactive) | > 100 µM (inactive) |  | > 100 µM (inactive) | > 100 µM (inactive)
C=CCNC(=S)NNC(=O)c1c(C)nc2sccn12 | > 100 µM (inactive) | > 100 µM (inactive) | > 100 µM (inactive) | > 100 µM (inactive) | > 100 µM (inactive) | > 100 µM (inactive) | 70 µM (inactive) | > 100 µM (inactive) |  | > 100 µM (inactive) | > 100 µM (inactive) | > 100 µM (inactive) | > 100 µM (inactive) | > 100 µM (inactive) | > 100 µM (inactive) | > 100 µM (inactive)
Cc1ccc(/C=C2\CCCC(C(NO)c3ccc(C)cc3)C2=NO)cc1 (stereo not given) | 58.3 µM (inactive) | > 100 µM (inactive) | 81.8 µM (inactive) | 21 µM (inactive) | 45.6 µM (inactive) | 59.8 µM (inactive) |  | 19.5 µM (inactive) | 26.4 µM (inactive) | 17.6 µM (inactive) | 16.1 µM (inactive) | 21.2 µM (inactive) | > 100 µM (inactive) |  | 19.5 µM (inactive) | 52.2 µM (inactive)
CCc1ccccc1NC(=O)C1=C(C)NC(C)=C(C(=O)Nc2c(CC)cccc2CC)C1c1ccc2c(c1)OCO2 (stereo not given) | 18.3 µM (inactive) | 20.5 µM (inactive) | 19.5 µM (inactive) | 19.1 µM (inactive) | 16.8 µM (inactive) | 19.7 µM (inactive) | 12.7 µM (inactive) | 18 µM (inactive) | 16.4 µM (inactive) | 20.3 µM (inactive) | 18.1 µM (inactive) | 14.6 µM (inactive) | 34.5 µM (inactive) |  | 23 µM (inactive) | 16.5 µM (inactive)
N#CCCn1[nH]c(=O)c(Cl)c(Cl)c1=O | 18.7 µM (inactive) | 17 µM (inactive) |  |  | 15.1 µM (inactive) | > 10 µM (inactive) | 6.21 µM (inactive) | 11.8 µM (inactive) |  | 16.3 µM (inactive) | 15.8 µM (inactive) |  |  | 14.7 µM (inactive) | 11.3 µM (inactive) | 17.3 µM (inactive)
CCCCN(CCCC)C(=O)C(=O)C(C)C(=O)CC (stereo not given) | > 100 µM (inactive) | > 100 µM (inactive) | > 100 µM (inactive) |  |  | > 100 µM (inactive) | > 100 µM (inactive) | > 100 µM (inactive) | > 100 µM (inactive) | > 100 µM (inactive) | > 100 µM (inactive) |  | > 100 µM (inactive) |  | > 100 µM (inactive) | > 100 µM (inactive)
O=C(c1ccccc1)c1c(CNCc2ccccc2)n(C(=O)c2ccccc2)c2ccccc12 | > 100 µM (inactive) | 14.5 µM (inactive) | 69.3 µM (inactive) | 23.2 µM (inactive) | 8.67 µM (inactive) | 80.5 µM (inactive) | 13.7 µM (inactive) | 24.6 µM (inactive) | 34.4 µM (inactive) | 43.4 µM (inactive) | > 100 µM (inactive) | 29.9 µM (inactive) |  | 6.58 µM (inactive) | 23.3 µM (inactive) | 77.1 µM (inactive)
Cc1ccccc1C1OC(=O)c2ccccc21 (stereo not given) | > 100 µM (inactive) | > 100 µM (inactive) |  | > 100 µM (inactive) | > 100 µM (inactive) | > 100 µM (inactive) |  | > 100 µM (inactive) | > 100 µM (inactive) | > 100 µM (inactive) | > 100 µM (inactive) | > 100 µM (inactive) | > 100 µM (inactive) | > 100 µM (inactive) | > 100 µM (inactive) | > 100 µM (inactive)
CSc1nnc(C(C#N)C#N)nn1 | > 100 µM (inactive) |  | > 100 µM (inactive) | > 100 µM (inactive) | > 100 µM (inactive) | > 100 µM (inactive) | > 100 µM (inactive) | > 100 µM (inactive) | > 100 µM (inactive) | > 100 µM (inactive) |  | > 100 µM (inactive) | > 100 µM (inactive) | > 100 µM (inactive) | > 100 µM (inactive) | > 100 µM (inactive)
COc1cc2c(c(OC)c1OC)-c1ccc(SC)c(=O)cc1[C@@H](NCc1ccc([N+](=O)[O-])cc1)CC2 | 0.00624 µM (active) | 0.00959 µM (active) | 0.01 µM (active) | 0.00277 µM (active) | 0.00369 µM (active) | 0.00741 µM (active) | 0.0472 µM (active) | 0.00331 µM (active) | 0.00404 µM (active) | 0.00676 µM (active) | 0.00493 µM (active) | 0.00421 µM (active) | 0.00315 µM (active) | 0.00148 µM (active) | 0.00202 µM (active) | 0.00583 µM (active)
